How the values were obtained:
Test in all cases: relative viability (nuclei count vs DMSO), 5 days (fraction); higher = more cells survive
[1] = compound: CN(C)C[C@@H]1CCn2cc(c3ccccc32)C2=C(C(=O)NC2=O)c2cn(c3ccccc23)CCO1 [Ruboxistaurin] + CC1(C)CCC(c2ccc(Cl)cc2)=C(CN2CCN(c3ccc(C(=O)NS(=O)(=O)c4ccc(N[C@H](CCN5CCOCC5)CSc5ccccc5)c(S(=O)(=O)C(F)(F)F)c4)cc3)CC2)C1 [Navitoclax] (partner 0.5 µM)
Outline: (§1)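 Relative viability was taken as the ratio of nuclei in treated wells to nuclei in vehicle wells. Lung cancer cell lines in 1536-well plates received compounds by pin tool one day after seeding, either one drug alone or a fixed anchor-drug dose plus five library-drug doses (not always all listed) in √10 steps. Nuclei were counted on 4× images after 5 days of treatment, and values are medians of duplicate plates.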

[2] = compound: CN(C)C[C@@H]1CCn2cc(c3ccccc32)C2=C(C(=O)NC2=O)c2cn(c3ccccc23)CCO1 [Ruboxistaurin] + COc1cc2c(Oc3ccc(NC(=O)C4(C(=O)Nc5ccc(F)cc5)CC4)cc3F)ccnc2cc1OCCCN1CCOCC1 [Foretinib] (partner 0.25 µM)
Outline: as §1

[3] = compound: CN(C)C[C@@H]1CCn2cc(c3ccccc32)C2=C(C(=O)NC2=O)c2cn(c3ccccc23)CCO1 [Ruboxistaurin] + Cc1cc(Nc2cc(N3CCN(C)CC3)nc(Sc3ccc(NC(=O)C4CC4)cc3)n2)n[nH]1 [Tozasertib] (partner 0.1 µM)
Outline: as §1

[4] = compound: CN(C)C[C@@H]1CCn2cc(c3ccccc32)C2=C(C(=O)NC2=O)c2cn(c3ccccc23)CCO1 [Ruboxistaurin] + Cc1nc(Nc2ncc(C(=O)Nc3c(C)cccc3Cl)s2)cc(N2CCN(CCO)CC2)n1 [Dasatinib] (partner 0.075 µM)
Outline: as §1

[5] = compound: CN(C)C[C@@H]1CCn2cc(c3ccccc32)C2=C(C(=O)NC2=O)c2cn(c3ccccc23)CCO1 [Ruboxistaurin] + Nc1ncn([C@H]2C[C@H](O)[C@@H](CO)O2)c(=O)n1 [Decitabine] (partner 2 µM)
Outline: as §1

Row | Cell Line | relative viability ([1]; first compound 0.08 µM) | relative viability ([1]; first compound 0.8 µM) | relative viability ([1]; first compound 2.53 µM) | relative viability ([1]; first compound 8 µM) | relative viability ([2]; first compound 0.08 µM) | relative viability ([2]; first compound 0.8 µM) | relative viability ([2]; first compound 2.53 µM) | relative viability ([2]; first compound 8 µM) | relative viability ([3]; first compound 0.08 µM) | relative viability ([3]; first compound 0.8 µM) | relative viability ([3]; first compound 2.53 µM) | relative viability ([3]; first compound 8 µM) | relative viability ([4]; first compound 0.08 µM) | relative viability ([4]; first compound 0.8 µM) | relative viability ([4]; first compound 2.53 µM) | relative viability ([4]; first compound 8 µM) | relative viability ([5]; first compound 0.08 µM) | relative viability ([5]; first compound 0.8 µM) | relative viability ([5]; first compound 2.53 µM) | relative viability ([5]; first compound 8 µM)
1 | NCI-H1993 | 1.08 | 0.919 | 0.994 | 0.689 | 0.941 | 0.623 | 0.905 | 0.691 | 0.574 | 0.541 | 0.568 | 0.538 | 0.78 | 0.422 | 0.561 | 0.555 | 0.579 | 0.559 | 0.582 | 0.522
2 | NCI-H2009 | 1.21 | 1.16 | 1.18 | 1.17 | 1.29 | 1.22 | 1.28 | 1.24 | 0.765 | 0.678 | 0.768 | 0.473 | 0.341 | 0.225 | 0.267 | 0.225 | 0.39 | 0.371 | 0.411 | 0.406
3 | NCI-H2023 | 0.973 | 0.837 | 0.947 | 0.89 | 1.22 | – | 0.787 | 0.693 | 0.327 | 0.256 | 0.207 | 0.181 | 0.579 | 0.453 | 0.523 | 0.439 | 0.214 | 0.214 | 0.254 | 0.256
4 | NCI-H2085 | 1.27 | 1.1 | 1.27 | 1.26 | 0.878 | 0.757 | 1.28 | 1.12 | 0.846 | 0.74 | 0.773 | 0.797 | 0.204 | 0.254 | 0.294 | 0.219 | 0.485 | 0.534 | 0.67 | 0.667
5 | NCI-H2087 | 1.24 | 0.866 | 1.17 | 0.957 | 1.2 | 0.934 | 1.07 | 0.876 | 0.234 | 0.192 | 0.241 | 0.159 | 0.889 | 0.783 | 0.835 | 0.701 | 0.243 | 0.21 | 0.241 | 0.263
6 | NCI-H2126 | 0.914 | 0.78 | 0.844 | 0.794 | 1.14 | 1.13 | 1.2 | 1.12 | 0.975 | 0.803 | 0.923 | 0.696 | 0.697 | 0.557 | 0.611 | 0.539 | 0.586 | 0.581 | 0.562 | 0.552
7 | NCI-H2170 | 0.57 | 0.592 | 0.581 | 0.56 | 1.02 | 1.02 | 1.05 | 1.05 | 0.719 | 0.737 | 0.686 | 0.745 | 0.592 | 0.61 | 0.489 | 0.519 | 0.464 | 0.472 | 0.509 | 0.458
8 | NCI-H2347 | 0.871 | 0.707 | 0.749 | 0.786 | 0.951 | 0.798 | 1.05 | 0.763 | 0.557 | 0.468 | 0.614 | 0.415 | 0.683 | 0.272 | 0.283 | 0.229 | 0.648 | 0.58 | 0.626 | 0.664
9 | NCI-H2405 | 1.09 | 0.654 | 0.917 | 0.963 | 1.07 | 0.961 | 0.998 | 1.01 | 0.764 | 0.613 | 0.726 | 0.722 | 0.184 | 0.239 | 0.174 | 0.222 | 0.798 | 0.676 | 0.763 | 0.756
10 | NCI-H3122 | 1.02 | 0.919 | 1 | 1.09 | 0.938 | 0.982 | 1.01 | 0.975 | 0.426 | 0.43 | 0.426 | 0.334 | 0.953 | 0.922 | 0.753 | 0.96 | 0.535 | 0.376 | 0.466 | 0.426
11 | PC-3 [JPC-3] | 0.89 | 0.757 | 0.813 | 0.829 | 1.06 | 1.03 | 1.02 | 1.09 | 0.91 | 0.852 | 0.852 | 0.841 | 1 | 0.97 | 0.967 | 0.944 | 0.897 | 0.814 | 0.922 | 0.838
12 | PC-14 | 1.03 | 0.988 | 1.02 | 1.08 | 1.01 | 0.87 | 1 | 0.984 | 0.596 | 0.518 | 0.546 | 0.532 | 0.269 | 0.221 | 0.281 | 0.0895 | 0.283 | 0.203 | 0.293 | 0.295
13 | RERF-LC-KJ | 1.36 | 0.977 | 0.881 | 0.833 | 0.879 | 0.777 | 0.864 | 0.869 | 0.515 | 0.401 | 0.49 | 0.462 | 0.847 | 0.608 | 0.833 | 0.652 | 0.784 | 0.587 | 0.743 | 0.682
14 | SK-LU-1 | 0.843 | 0.857 | 0.949 | 0.829 | 0.93 | 0.809 | 0.772 | 0.683 | 0.414 | 0.33 | 0.323 | 0.265 | 0.195 | 0.145 | 0.163 | 0.169 | 0.744 | 0.573 | 0.668 | 0.751
15 | SK-MES-1 | 1.35 | 1.15 | 1.4 | 1.09 | 1.08 | 0.791 | 0.969 | 0.858 | 0.948 | 0.808 | 0.887 | 0.789 | 0.395 | 0.308 | 0.329 | 0.339 | 0.382 | 0.363 | 0.389 | 0.427
16 | SW 1573 | 0.978 | 0.791 | 1.01 | 0.854 | 1.15 | 0.866 | 1.03 | 0.762 | 0.256 | 0.19 | 0.168 | 0.124 | 0.52 | 0.331 | 0.452 | 0.456 | 0.454 | 0.445 | 0.58 | 0.487
17 | UMC-11 | 0.312 | 0.28 | 0.294 | 0.248 | 1.05 | 0.951 | 0.904 | 0.646 | 0.203 | 0.211 | 0.248 | 0.177 | 0.481 | 0.455 | 0.429 | 0.434 | 0.672 | 0.51 | 0.676 | 0.61

Source: the supplement of paper PMC10307832
